For 37 compounds, Efficacy, logP and chromatographic logP results are on record in patent US9725414B2, “Fungicidal N-bicycloalkyl and N-tricycloalkyl pyrazole-4-(thio)carboxamide derivatives” (priority 2011, dated 2017).

Read-outs that look alike come from different tables or passages of the source.

One series deals with Sphaerotheca fuliginea. The series is described as follows: Example B: in vivo preventive test on Sphaerotheca fuliginea (powdery mildew on cucurbits), gherkin plants. The following applies: 500 ppm of active ingredient, grading 12 days after contamination. On the procedure:
In Vivo Preventive Test on Sphaerotheca fuliginea (Powdery Mildew on Cucurbits) […] Gherkin plants (“Vert petit de Paris” variety), sown in starter cups on a 50/50 peat soil-pozzolana substrate and grown at 24° C. are treated at the Z11 cotyledon stage by spraying with the active ingredient prepared as described above. Plants, used as controls, are treated with the mixture of acetone/tween/DMSO/water not containing the active material. After 24 hours, the plants are contaminated by spraying the cotyledons with an aqueous suspension of Sphaerotheca fuliginea spores (100 000 spores per mL). The spores are collected from infected plants.

The test system of series [1] is Pyrenophora teres. The series is described as follows: Example F: in vivo preventive test on Pyrenophora teres (barley), acetone/tween/DMSO preparation. The following applies: 500 ppm of active ingredient, barley, grading 14 days after contamination. On the procedure:
In Vivo Preventive Test on Pyrenophora teres (Barley) […] Barley plants (“Plaisant” variety), sown in starter cups on a 50/50 peat soil pozzolana substrate and grown at 22° C., are treated at the 1 leaf stage (10 cm height) by spraying with the active ingredient prepared as described above. Plants, used as controls, are treated with the mixture of acetone/tween/DMSO/water not containing the active material. After 24 hours, the plants are contaminated by spraying the leaves with an aqueous suspension of Pyrenophora teres spores (12 000 spores per mL). The spores are collected from a 12-day-old culture. […] Grading (% of efficacy) is carried out 14 days after the contamination, in comparison with the control plants.

In the next series the test system is Septoria tritici. Briefly: Example I: in vivo preventive test on Septoria tritici (wheat), acetone/tween/DMSO preparation. The conditions noted are these: 500 ppm of active ingredient, grading 24 days after contamination. As to the method: In Vivo Preventive Test on Septoria tritici (Wheat) […] Wheat plants (“Scipion” variety), sown in starter cups on a 50/50 peat soil pozzolana substrate and grown at 22° C., are treated at the 1 leaf stage (10 cm height) by spraying with the active ingredient prepared as described above. Plants, used as controls, are treated with the mixture of acetone/tween/DMSO/water not containing the active material. After 24 hours, the plants are contaminated by spraying the leaves with an aqueous suspension of cryopreserved Septoria tritici spores (500 000 spores per mL). The contaminated wheat plants are incubated for 72 hours at 18° C. and at 100% relative humidity, and then for 21 days at 90% relative humidity. Grading (% of efficacy) is carried out 24 days after the contamination, in comparison with the control plants.

The next series concerns Alternaria solani. Briefly: Example C: in vivo preventive test on Alternaria solani (tomato). The following applies: 500 ppm of active ingredient, evaluated 7 days after inoculation. As to the method: (§1) In Vivo Preventive Test on Alternaria solani (Tomato) Solvent: 49 parts by weight of N,N-dimethylformamide Emulsifier: 1 part by weight of alkylarylpolyglycolether To produce a suitable preparation of active compound, 1 part by weight of active compound is mixed with the stated amounts of solvent and emulsifier, and the concentrate is diluted with water to the desired concentration. To test for preventive activity, young plants are sprayed with the preparation of active compound at the stated rate of application. One day after this treatment, the plants are inoculated with an aqueous spore suspension of Alternaria solani. The plants remain for one day in an incubation cabinet at approximately 22° C. and a relative atmospheric humidity of 100%. Then the plants are placed in an incubation cabinet at approximately 20° C. and a relative atmospheric humidity of 96%.

The test system of series [2] is Pyrenophora teres. Briefly: Example E: in vivo preventive test on Pyrenophora teres (barley), DMF/emulsifier preparation. The following applies: 500 ppm of active ingredient, evaluated 7-9 days after inoculation. As to the method: as §1, with “Pyrenophora teres (Barley)” for “Alternaria solani (Tomato)”, “alkylaryl polyglycol ether” for “alkylarylpolyglycolether”, “Pyrenophora teres.” for “Alternaria solani.”, “48 hours” for “one day”, “at” for “at approximately”, “100%.” for “100%. Then the plants are placed in an incubation cabinet at approximately 20° C. and a relative atmospheric humidity of 96%.”

Series [3] can be described thus: log P by HPLC on reversed-phase column (C 18), EEC Directive 79831 Annex V.A8. Format: physicochemical. As to the method:
In table 1, the log P values were determined in accordance with EEC Directive 79831 Annex V.A8 by HPLC (High Performance Liquid Chromatography) on a reversed-phase column (C 18), using the method described below: Temperature: 40° C.; Mobile phases: 0.1% aqueous formic acid and acetonitrile; linear gradient from 10% acetonitrile to 90% acetonitrile. Calibration was carried out using unbranched alkan-2-ones (comprising 3 to 16 carbon atoms) with known log P values (determination of the log P values by the retention times using linear interpolation between two successive alkanones). lambda-max-values were determined using UV-spectra from 200 nm to 400 nm and the peak values of the chromatographic signals.

A further series has as its system Puccinia recondita. The series is described as follows: Example M: in vivo preventive test on Puccinia recondita (brown rust on wheat). The conditions noted are these: 500 ppm of active ingredient, grading 12 days after contamination. As to the method:
In Vivo Preventive Test on Puccinia recondita (Brown Rust on Wheat) […] Wheat plants (“Scipion” variety), sown in starter cups on a 50/50 peat soil pozzolana substrate and grown at 22° C., are treated at the 1 leaf stage (10 cm height) by spraying with the active ingredient prepared as described above. Plants, used as controls, are treated with the mixture of acetone/tween/DMSO/water not containing the active material. After 24 hours, the plants are contaminated by spraying the leaves with an aqueous suspension of Puccinia recondite spores (100 000 spores per mL). The spores are collected from an infected plant and are suspended in water containing 2.5 mL/L of Tween 80 at 10%. […] Grading (% of efficacy) is carried out 12 days after the contamination, in comparison with the control plants.

[4] abbreviates: HPLC reversed-phase C 18, 40° C., 0.1% aqueous formic acid and acetonitrile gradient, several values = mixture of two or more isomers.

What is called logP is the decadic logarithm of the partition coefficient of the neutral form, usually between octanol and water. In general, chromatographic logP refers to a lipophilicity value derived from retention on a column. Higher therefore signals higher lipophilicity.

In turn, `Cn1cc(C(=O)NC2CCCC3CCCCC32)c(C(F)F)n1` (mixture of isomers) [Example 29] displayed an Efficacy with Sphaerotheca fuliginea of 95%.
The same measure, in the same setting: to `Cn1nc(C(F)F)c(C(=O)NC2CCCC3CCCCC32)c1Cl` (mixture of isomers) [Example 30] belongs 100%.
In the case of `Cn1cc(C(=O)N(C2CC2)C2CCCC3CCCCC32)c(C(F)F)n1` (mixture of isomers) [Example 33], the Efficacy in the series with Pyrenophora teres [1] amounted to 100%; in the series on Septoria tritici, 92%; with Sphaerotheca fuliginea, 94%.
With `Cn1nc(C(F)F)c(C(=O)NC2CCC3CCCCC3C2)c1Cl` (mixture of isomers) [Example 34], the Efficacy in the series with Alternaria solani worked out at 95%; in the series on Pyrenophora teres [2], 70%.
In the case of `Cn1nc(C(F)F)c(C(=O)NC2CCC3CCCCC3C2)c1F` (mixture of isomers) [Example 35], the Efficacy in the series on Alternaria solani amounted to 80%.
As for `Cn1cc(C(=O)N(C2CC2)C2CCC3CCCCC3C2)c(C(F)F)n1` (mixture of isomers) [Example 36], the Efficacy with Alternaria solani is listed as 95%; in the series on Pyrenophora teres [2] it was 100%.
In the same order, the values of `Cn1nc(C(F)F)c(C(=O)N(C2CC2)C2CCC3CCCCC3C2)c1Cl` (mixture of isomers) [Example 37] are 95% and 100%.
In the case of `Cc1nn(C)c(F)c1C(=O)NC1CCCC2C1C(C)CC2(C)C` (centres unmarked) [Example 15], in series [3], the logP is listed as 3.76. Also, the results for the Efficacy in the series with Alternaria solani and in the series with Pyrenophora teres [2] were 89% and 100%, respectively.
`CC1CC(C)(C)C2CCCC(NC(=O)c3c(C(F)F)nn(C)c3Cl)C12` (centres unmarked) [Example 16] showed a lipophilicity (logP) in series [3] of 4.49. This compound also yielded an Efficacy in the series with Pyrenophora teres [2] of 100%.
The compound `CC1CC(C)(C)C2CCCC(NC(=O)c3cn(C)nc3C(F)(F)F)C12` (centres unmarked) [Example 17] yielded a logP in series [3] of 4.00. For the same compound, the values for the Efficacy in the series with Alternaria solani and with Pyrenophora teres [2] were 94% and 95%, respectively.
In series [3], `Cn1nc(C(F)F)c(C(=S)N(C2CC2)C2CCC3CCCC3C2)c1F` (centres unmarked) [Example 24] returned a logP of 4.90. For the same compound, the Efficacy in the series with Pyrenophora teres [2] amounted to 95%.
The compound `CC(C)N(C(=O)c1c(C(F)F)nn(C)c1Cl)C1CCCC2CCCCC21` (centres unmarked) [Example 26] came in with a logP in series [3] of 4.83.
Consider `CC(C)N(C(=O)c1c(C(F)F)nn(C)c1F)C1CCCC2CCCCC21` (centres unmarked) [Example 27], for which the logP in series [3] came out at 4.58.
`Cn1nc(C(F)F)c(C(=S)NC2CCCC3CCCCC32)c1F` (centres unmarked) [Example 28] gave a log partition coefficient (logP) in series [3] of 4.41. Further, the figures for the Efficacy in the series with Alternaria solani and in the series with Pyrenophora teres [2] were 70% and 95%, respectively.
In the case of `Cn1nc(C(F)F)c(C(=O)NC2C3(C)CCC(C3)C2(C)C)c1Cl` (centres unmarked) [Example 39], the logP in series [3] is given as 3.92.
On the same count and under the same terms, as for `Cn1nc(C(F)F)c(C(=O)NC2C3(C)CCC(C3)C2(C)C)c1F` (centres unmarked) [Example 40], the figure is 3.70; as for `Cn1cc(C(=O)NC2C3(C)CCC(C3)C2(C)C)c(C(F)F)n1` (centres unmarked) [Example 41], 3.35; as for `Cn1nc(C(F)F)c(C(=O)NC2(C#N)CC3CCC2C3)c1Cl` (centres unmarked) [Example 43], 2.34.
On the same count and under the same terms, to `Cn1cc(C(=O)NC2(C#N)CC3CCC2C3)c(C(F)F)n1` (centres unmarked) [Example 44] belongs 1.97; to `Cn1nc(C(F)F)c(C(=O)NC2(C#N)CC3CCC2C3)c1F` (centres unmarked) [Example 45], 2.16; to `Cn1cc(C(=O)NC23CC4CC(CC(C4)C2)C3)c(C(F)F)n1` [Example 55], 3.06.
In the case of `Cn1nc(C(F)F)c(C(=O)N(CC2CCC3CCCC32)C2CC2)c1F` (centres unmarked) [Example 58], the results for the Efficacy with Pyrenophora teres [1] and in the series on Puccinia recondita were 100% and 98%, respectively. The compound also returned a logP in series [3] of 3.96.
In series [3], `CC1C(CN(C(=O)c2c(C(F)F)nn(C)c2Cl)C2CC2)CC2CC1C2(C)C` (centres unmarked) [Example 79] yielded a logP of 4.82. For the same compound, the Efficacy in the series on Alternaria solani was found to be 94%; in the series on Pyrenophora teres [2], 100%.
For `CC1C(CNC(=O)c2c(C(F)F)nn(C)c2Cl)CC2CC1C2(C)C` (centres unmarked) [Example 80], the logP in series [3] worked out at 4.25. For the same compound, the Efficacy in the series on Alternaria solani and with Pyrenophora teres [2] was 100% throughout.
Take `CC1C(CNC(=O)c2c(C(F)F)nn(C)c2F)CC2CC1C2(C)C` (centres unmarked) [Example 81]: the logP in series [3] came out at 3.99. Moreover, the Efficacy in the series with Alternaria solani and in the series with Pyrenophora teres [2] was 100% throughout.
As to `Cn1nc(C(F)F)c(C(=O)NCC2CCC3CC2C3(C)C)c1F` (centres unmarked) [Example 84], in series [3], the logP is 3.62. The Efficacy in the series on Alternaria solani is listed as 95%; in the series on Pyrenophora teres [2], 100%.
Regarding `Cn1cc(C(=O)NCC23CC4CC(CC(C4)C2)C3)c(C(F)F)n1` [Example 87], the Efficacy in the series with Puccinia recondita is recorded as 75%; in the series on Sphaerotheca fuliginea it was 79%. In addition, in series [3], the logP is listed as 3.29.
For `Cn1nc(C(F)F)c(C(=O)NCC23CC4CC(CC(C4)C2)C3)c1Cl` [Example 88], the logP in series [3] (setting [4]) worked out at 3.89. Moreover, in the series on Alternaria solani, the Efficacy stood at 100%.
In the same order, the values of `Cn1nc(C(F)F)c(C(=O)NCC23CC4CC(CC(C4)C2)C3)c1F` [Example 89] are 3.67 and 95%.
For the compound `CC(NC(=O)c1c(C(F)F)nn(C)c1Cl)C12CC3CC(CC(C3)C1)C2` (centres unmarked) [Example 106], the log partition coefficient (logP) in series [3] is listed as 4.27. Moreover, the Efficacy was 100% with Alternaria solani and 90% with Pyrenophora teres [2].
In the same order, the values of `CC(NC(=O)c1c(C(F)F)nn(C)c1F)C12CC3CC(CC(C3)C1)C2` (centres unmarked) [Example 107] are 4.03, 95% and 80%.
Compound `Cn1nc(C(F)F)c(C(=O)N(CC23CC4CC(CC(C4)C2)C3)C2CC2)c1Cl` [Example 108] had a logP in series [3] of 4.68.
`Cn1nc(C(F)F)c(C(=O)N(CC23CC4CC(CC(C4)C2)C3)C2CC2)c1F` [Example 109] showed a logP in series [3] of 4.49.
Same read-out and setting: to `COc1nn(C)c(F)c1C(=O)N(CC12CC3CC(CC(C3)C1)C2)C1CC1` [Example 110] belongs 4.04; to `Cn1cc(C(=O)N(CC23CC4CC(CC(C4)C2)C3)C2CC2)c(C(F)F)n1` [Example 111], 3.92; to `CC1CC1N(C(=O)c1c(C(F)(F)F)nn(C)c1F)C(C)C1CC2CCC1C2` (centres unmarked) [Example 112], 4.92.
As for `CC(NC1CC1)C12CC3CC(CC(C3)C1)C2` (centres unmarked) [N-[1-(adamantan-1-yl)ethyl]cyclopropanamine], in series [3], the chromatographic logP is 5.82.
